Laboratory results reported in patent US20030224525A1, “Enhanced photophysics of conjugated polymers” (The University of Chicago, priority 2002, published 2003).

Experiment: Particle size by dynamic light scattering
Format: physicochemical
Details: in solution; complex 1:1 mole ratio, filtered with 100 nanometer filter
Experimental: More striking results come from fluorescence microscopy of the polymer-surfactant complex (1:1 mole ratio). After filtration with a 100 nanometer filter, the 5×10^−5 M complex solution is perfectly clear and suitable for spectroscopic studies. However, when spread on a glass substrate (microscope slide) with a cover glass, incubated for 10 minutes at room temperature and observed under a 100×oil immerse objective, the polymer-surfactant complex consists of bright, uniform and well-defined nano-sized particles (FIG. 2A). […] The particle size was measured using dynamic light scattering methods. […] As a comparison, the measured particle size in pure MPS-PPV solution is about 9 nm with a broad gaussian distribution; while pure DOTAP solution contains particles ( presumably lipid bilayer assemblies) with a mean diameter of 57 nm, consistent with the literature value. The sizes of the polymer and complex particles are consistent with the results from fluorescence correlation spectroscopic experiments.
Since the spectra in FIG. 1 indicated the possibility of a second complex component in the polymer-surfactant mixture, the solution emission was examined using a shorter excitation wavelength (400 nm). As shown in FIG. 3 (inset A), the solution does container a very low concentration of species emitting at 465 nm. […]

For CCCCCCCC/C=C\CCCCCCCC(=O)OCC(C[N+](C)(C)C)OC(=O)CCCCCCC/C=C\CCCCCCCC.[Cl-] (stereo not shown) [DOTAP, N-[1-(2,3-Dioleoyloxy)propyl]-N,N,N,-trimethylammonium chloride], the average particle size was 57 nm.
